# According to patent US9617267B2, “Compounds and methods for kinase modulation, and indications therefor” (Plexxikon Inc., priority 2009, dated 2017):
# Where two headings read alike, the source gives them in different places.
# Assays:
# CYP1A2 = CYP1A2 (Homo sapiens (Human), UniProt P05177); experiment: CYP enzyme inhibition, fluorescent substrate (CEC)
# Outline: (§1)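 Ten-point 1:1 compound dilutions in NADPH-regenerating cofactor mix, pre-incubated 10 min at 37 °C before enzyme/substrate addition: CYP1A2 0.5 pmol with 5 μM CEC, 15 min, 409 ex/460 em; CYP2D6 1.5 pmol with 1.5 μM AMMC, 30 min, 409 ex/530 em. IC50 from fluorescent product vs concentration.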
# c-Raf-1 = c-Raf-1 (Homo sapiens, UniProt P04049); experiment: c-Raf-1 kinase activity biochemical assay (AlphaScreen, biotin-MEK1 phosphorylation)
# c-Raf-1, sequence (P04049 whole entry, looked up): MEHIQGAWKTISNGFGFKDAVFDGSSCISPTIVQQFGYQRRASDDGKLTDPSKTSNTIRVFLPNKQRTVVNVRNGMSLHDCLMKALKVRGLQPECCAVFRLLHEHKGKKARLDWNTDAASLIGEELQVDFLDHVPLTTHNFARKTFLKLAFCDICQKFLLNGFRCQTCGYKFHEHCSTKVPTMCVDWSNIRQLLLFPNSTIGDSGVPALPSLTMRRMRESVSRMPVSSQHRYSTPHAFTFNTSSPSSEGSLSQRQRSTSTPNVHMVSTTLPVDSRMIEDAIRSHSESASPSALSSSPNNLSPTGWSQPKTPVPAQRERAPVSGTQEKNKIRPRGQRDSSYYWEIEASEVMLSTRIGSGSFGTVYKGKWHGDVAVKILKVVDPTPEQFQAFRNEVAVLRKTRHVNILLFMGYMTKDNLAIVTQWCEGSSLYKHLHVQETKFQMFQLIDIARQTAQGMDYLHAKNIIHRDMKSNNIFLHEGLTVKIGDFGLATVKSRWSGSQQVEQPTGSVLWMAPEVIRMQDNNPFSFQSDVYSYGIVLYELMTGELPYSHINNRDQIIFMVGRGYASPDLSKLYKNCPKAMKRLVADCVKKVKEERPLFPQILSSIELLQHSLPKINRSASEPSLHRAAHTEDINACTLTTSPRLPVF
# Outline: (§2)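 Biotin-MEK1 phosphorylation measured after 45 min kinase reaction at RT with 100 μM ATP final; compounds tested at 8 points from 0.1 mM DMSO stock.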
# B-Raf [1] = experiment: B-Raf kinase activity biochemical assay (AlphaScreen, biotin-MEK1 phosphorylation); conditions: for Biochemical activity ratio B/V600E: ratio of IC50 B-Raf / B-Raf V600E; for Biochemical activity ratio B/C: ratio of IC50 B-Raf / c-Raf-1
# Outline: as §2
# B-Raf [2] = biological target: B-Raf (Homo sapiens (Human), UniProt P15056); experiment: as above; conditions: B-Raf
# B-Raf (Homo sapiens (Human), UniProt P15056), sequence (P15056 whole entry): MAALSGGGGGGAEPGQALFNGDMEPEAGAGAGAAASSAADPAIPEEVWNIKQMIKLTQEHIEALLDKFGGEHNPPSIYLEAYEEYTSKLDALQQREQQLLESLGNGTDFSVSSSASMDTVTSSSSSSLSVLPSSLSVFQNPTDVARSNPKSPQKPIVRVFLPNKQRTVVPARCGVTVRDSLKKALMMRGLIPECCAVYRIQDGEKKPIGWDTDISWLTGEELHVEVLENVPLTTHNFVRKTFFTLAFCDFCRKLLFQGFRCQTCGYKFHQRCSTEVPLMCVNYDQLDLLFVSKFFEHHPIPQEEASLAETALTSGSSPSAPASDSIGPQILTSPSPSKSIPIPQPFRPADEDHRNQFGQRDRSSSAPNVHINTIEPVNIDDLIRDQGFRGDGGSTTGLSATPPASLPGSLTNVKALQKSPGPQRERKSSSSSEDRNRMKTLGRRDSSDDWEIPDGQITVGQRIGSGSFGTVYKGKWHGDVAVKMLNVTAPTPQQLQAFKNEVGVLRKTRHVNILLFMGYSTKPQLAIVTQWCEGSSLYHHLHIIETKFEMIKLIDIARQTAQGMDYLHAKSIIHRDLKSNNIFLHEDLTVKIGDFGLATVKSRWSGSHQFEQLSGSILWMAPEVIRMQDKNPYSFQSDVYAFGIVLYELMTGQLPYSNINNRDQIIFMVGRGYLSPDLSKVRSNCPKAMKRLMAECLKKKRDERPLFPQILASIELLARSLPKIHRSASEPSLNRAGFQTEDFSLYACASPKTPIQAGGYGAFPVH
# Outline: as §2
# CYP2D6 = CYP2D6 (Homo sapiens (Human), UniProt P10635); experiment: CYP enzyme inhibition, fluorescent substrate (AMMC); type: in vitro ADME; conditions: read-out: Cyp IC50 2D6
# CYP2D6, sequence (P10635 whole entry): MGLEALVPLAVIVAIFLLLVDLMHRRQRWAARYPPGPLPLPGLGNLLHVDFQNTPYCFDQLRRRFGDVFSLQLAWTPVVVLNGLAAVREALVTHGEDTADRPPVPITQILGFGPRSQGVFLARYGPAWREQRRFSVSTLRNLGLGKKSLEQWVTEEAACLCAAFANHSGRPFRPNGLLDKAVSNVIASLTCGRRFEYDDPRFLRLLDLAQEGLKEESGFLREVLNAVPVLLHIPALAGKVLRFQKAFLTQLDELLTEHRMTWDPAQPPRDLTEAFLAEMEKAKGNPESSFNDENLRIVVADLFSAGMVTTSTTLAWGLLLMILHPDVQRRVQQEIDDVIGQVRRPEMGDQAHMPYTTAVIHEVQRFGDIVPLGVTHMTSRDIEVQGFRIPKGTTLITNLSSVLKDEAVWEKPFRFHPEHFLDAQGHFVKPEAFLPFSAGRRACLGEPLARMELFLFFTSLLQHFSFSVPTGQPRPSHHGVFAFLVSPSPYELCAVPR
# Outline: as §1
# CYP3A4(BFC) = CYP3A4(BFC) (Homo sapiens (Human), UniProt P08684); experiment: CYP enzyme inhibition, fluorescent substrate BFC
# CYP3A4(BFC), sequence (P08684 whole entry): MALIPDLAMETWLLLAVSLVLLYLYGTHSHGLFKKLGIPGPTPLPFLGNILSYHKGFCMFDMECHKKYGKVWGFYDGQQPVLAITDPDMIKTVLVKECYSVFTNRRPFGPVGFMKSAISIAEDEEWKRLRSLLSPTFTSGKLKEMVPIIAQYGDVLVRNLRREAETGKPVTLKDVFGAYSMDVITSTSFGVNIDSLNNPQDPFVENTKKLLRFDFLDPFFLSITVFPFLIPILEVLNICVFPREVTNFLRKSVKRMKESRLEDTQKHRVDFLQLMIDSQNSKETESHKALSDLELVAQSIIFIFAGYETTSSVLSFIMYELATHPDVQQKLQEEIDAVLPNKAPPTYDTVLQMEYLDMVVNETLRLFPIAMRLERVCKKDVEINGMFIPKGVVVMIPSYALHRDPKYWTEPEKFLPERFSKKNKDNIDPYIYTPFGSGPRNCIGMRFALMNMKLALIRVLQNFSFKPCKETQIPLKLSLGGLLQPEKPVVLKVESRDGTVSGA
# Outline: (§3)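 IC50 values come from plotting product fluorescence against compound concentration; inhibition lowers formation of the fluorescent metabolite. Ten-point twofold dilutions in co-factor mix were held 10 minutes at 37 °C before the enzyme reaction, also run at 37 °C.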
# CYP2C19 = CYP2C19 (Homo sapiens (Human), UniProt P33261); experiment: CYP enzyme inhibition, fluorescent substrate (CEC)
# CYP2C19, sequence (P33261 whole entry): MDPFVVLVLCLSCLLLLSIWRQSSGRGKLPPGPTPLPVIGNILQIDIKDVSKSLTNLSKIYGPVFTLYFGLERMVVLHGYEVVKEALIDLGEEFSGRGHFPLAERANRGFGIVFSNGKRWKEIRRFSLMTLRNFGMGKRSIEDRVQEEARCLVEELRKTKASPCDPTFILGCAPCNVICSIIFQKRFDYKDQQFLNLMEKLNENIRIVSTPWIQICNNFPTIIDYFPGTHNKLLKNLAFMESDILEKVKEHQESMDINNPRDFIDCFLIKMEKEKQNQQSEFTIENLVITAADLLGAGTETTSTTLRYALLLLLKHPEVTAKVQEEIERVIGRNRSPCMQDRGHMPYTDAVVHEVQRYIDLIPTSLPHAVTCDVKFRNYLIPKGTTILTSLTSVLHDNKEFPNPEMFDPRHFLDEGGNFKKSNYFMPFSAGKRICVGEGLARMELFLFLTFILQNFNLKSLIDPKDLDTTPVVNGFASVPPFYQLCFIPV
# Outline: as §3
# CYP2C9 = CYP2C9 (Homo sapiens (Human), UniProt P11712); experiment: CYP enzyme inhibition, fluorescent substrate (MFC)
# CYP2C9, sequence (P11712 whole entry): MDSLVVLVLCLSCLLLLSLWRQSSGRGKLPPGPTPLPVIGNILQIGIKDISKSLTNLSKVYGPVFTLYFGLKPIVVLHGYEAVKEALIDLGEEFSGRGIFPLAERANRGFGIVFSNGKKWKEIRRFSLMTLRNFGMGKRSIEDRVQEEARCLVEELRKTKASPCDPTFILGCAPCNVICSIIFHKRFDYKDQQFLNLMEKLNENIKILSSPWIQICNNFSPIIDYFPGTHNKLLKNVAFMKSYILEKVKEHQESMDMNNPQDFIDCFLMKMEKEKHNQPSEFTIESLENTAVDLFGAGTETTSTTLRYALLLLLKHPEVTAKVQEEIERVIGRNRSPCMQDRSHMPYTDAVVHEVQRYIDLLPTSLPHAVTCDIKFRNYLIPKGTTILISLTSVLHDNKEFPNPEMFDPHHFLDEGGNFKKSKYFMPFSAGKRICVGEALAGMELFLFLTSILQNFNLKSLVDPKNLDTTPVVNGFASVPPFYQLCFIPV
# Outline: as §3
# B-Raf V600E = B-Raf V600E (Homo sapiens (Human), UniProt P15056, V600E); experiment: B-Raf V600E kinase activity biochemical assay (AlphaScreen, biotin-MEK1 phosphorylation); conditions: for IC50: B-Raf V600E; for Biochemical activity ratio V600E/C: ratio of IC50 B-Raf V600E / c-Raf-1
# B-Raf V600E, sequence (P15056 whole entry V600E): as the sequence (P15056 whole entry) above, with V600E counted along it
# Outline: as §2
# [3] = Relative solubility by turbidity threshold concentration in aqueous buffers (pH 1.5, 4.5, 6.8, 7.4); type: physicochemical; conditions: for turbidity threshold (L, M, H) 1.4: pH 1.4 [sic] (method: SGF pH 1.5); for turbidity threshold (L, M, H) 4.5: pH 4.5 (SIF); for turbidity threshold (L, M, H) 6.8: pH 6.8 (SIF); for turbidity threshold (L, M, H) 7.4: pH 7.4 (HEPES)
# Outline: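 Solubility class (high >250 μM, moderate 31.3–250 μM, low <31.3 μM) comes from the concentration where absorbance reaches a 0.01 threshold, averaged across 490/535/650 nm. Samples were compound dilutions from DMSO stock, 1 μL into 99 μL buffer at pH 1.5, 4.5, 6.8 or 7.4.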
# CYP3A4(BQ) = CYP3A4(BQ) (Homo sapiens (Human), UniProt P08684); experiment: CYP enzyme inhibition, fluorescent substrate BQ
# CYP3A4(BQ), sequence (P08684 whole entry): as the sequence (P08684 whole entry) above
# Outline: as §3
# [4] = read-out: Cyp IC50 2C19, CYP2C19, substrate CEC
# [5] = read-out: Cyp IC50 2C9, CYP2C9, substrate MFC
# [6] = read-out: Cyp IC50 3A4(BFC), CYP3A4, substrate BFC
# [7] = read-out: Cyp IC50 3A4(BQ), CYP3A4, substrate BQ
# [8] = read-out: Cyp IC50 1A2, CYP1A2, substrate CEC
# CYP1A2, sequence (P05177 whole entry): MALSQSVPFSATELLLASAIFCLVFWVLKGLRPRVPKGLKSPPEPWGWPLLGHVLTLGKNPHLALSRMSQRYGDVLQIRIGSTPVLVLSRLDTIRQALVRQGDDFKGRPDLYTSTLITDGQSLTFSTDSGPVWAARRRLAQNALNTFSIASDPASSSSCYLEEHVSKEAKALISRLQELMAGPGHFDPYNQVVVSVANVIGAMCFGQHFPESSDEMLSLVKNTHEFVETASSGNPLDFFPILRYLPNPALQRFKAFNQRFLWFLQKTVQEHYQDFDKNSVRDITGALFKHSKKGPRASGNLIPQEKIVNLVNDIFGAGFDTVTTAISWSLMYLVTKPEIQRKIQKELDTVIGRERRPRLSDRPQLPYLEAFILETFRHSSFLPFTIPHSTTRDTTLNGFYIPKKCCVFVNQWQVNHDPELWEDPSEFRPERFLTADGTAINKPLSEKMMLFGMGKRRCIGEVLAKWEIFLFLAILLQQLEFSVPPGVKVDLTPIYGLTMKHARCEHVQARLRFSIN
compound,measurement,setting,value
"CCCc1ccc(S(=O)(=O)Nc2ccc(F)c(C(=O)c3c[nH]c4ncnc(C)c34)c2F)cc1 [P-1007, N-[2,4-Difluoro-3-(4-methyl-7H-pyrrolo[2,3-d]pyrimidine-5-carbonyl)-phenyl]-4-propyl-benzenesulfonamide]",IC50,"CYP1A2; human, 15 min",> 10 µM
same,IC50,c-Raf-1,< 0.1 µM
same,Biochemical activity ratio B/V600E,B-Raf [1],0.1-10
same,Biochemical activity ratio B/C,B-Raf [1],0.1-10
same,IC50,B-Raf [2],< 0.1 µM
same,IC50,CYP2D6,> 10 µM
same,IC50,CYP3A4(BFC),5 to 10 µM
same,IC50,CYP2C19; [4],> 10 µM
same,IC50,CYP2C9; [5],> 10 µM
same,IC50,B-Raf V600E,> 0.1 µM
same,Biochemical activity ratio V600E/C,B-Raf V600E,>10
same,"turbidity threshold (L, M, H) 1.4",[3],L (low solubility if the threshold concentration is <31.3 μM)
same,"turbidity threshold (L, M, H) 4.5",[3],L (low solubility if the threshold concentration is <31.3 μM)
same,"turbidity threshold (L, M, H) 6.8",[3],L (low solubility if the threshold concentration is <31.3 μM)
same,"turbidity threshold (L, M, H) 7.4",[3],L (low solubility if the threshold concentration is <31.3 μM)
same,IC50,CYP3A4(BQ),5 to 10 µM
"CCc1ccc(S(=O)(=O)Nc2ccc(F)c(C(=O)c3c[nH]c4ncnc(OC)c34)c2F)cc1 [P-1008, N-[2,4-Difluoro-3-(4-methoxy-7H-pyrrolo[2,3-d]pyrimidine-5-carbonyl)-phenyl]-4-ethyl-benzenesulfonamide]",IC50,"CYP1A2; human, 15 min",> 10 µM
same,IC50,c-Raf-1,> 0.1 µM
same,Biochemical activity ratio B/V600E,B-Raf [1],0.1-10
same,Biochemical activity ratio B/C,B-Raf [1],0.1-10
same,IC50,B-Raf [2],> 0.1 µM
same,IC50,CYP2D6,> 10 µM
same,IC50,CYP3A4(BFC); [6],> 10 µM
same,IC50,CYP2C19; [4],> 10 µM
same,IC50,CYP2C9,5 to 10 µM
same,IC50,B-Raf V600E,> 0.1 µM
same,Biochemical activity ratio V600E/C,B-Raf V600E,0.1-10
same,"turbidity threshold (L, M, H) 1.4",[3],M (moderate solubility if the threshold concentration is 31.3 μM to 250 μM)
same,"turbidity threshold (L, M, H) 4.5",[3],M (moderate solubility if the threshold concentration is 31.3 μM to 250 μM)
same,"turbidity threshold (L, M, H) 6.8",[3],L (low solubility if the threshold concentration is <31.3 μM)
same,"turbidity threshold (L, M, H) 7.4",[3],M (moderate solubility if the threshold concentration is 31.3 μM to 250 μM)
same,IC50,CYP3A4(BQ); [7],> 10 µM
"Cc1ncnc2[nH]cc(C(=O)c3c(F)ccc(NS(=O)(=O)c4ccc(C(C)C)cc4)c3F)c12 [P-1009, N-[2,4-Difluoro-3-(4-methyl-7H-pyrrolo[2,3-d]pyrimidine-5-carbonyl)-phenyl]-4-isopropyl-benzenesulfonamide]",IC50,"CYP1A2; human, 15 min",> 10 µM
same,IC50,c-Raf-1,< 0.1 µM
same,Biochemical activity ratio B/V600E,B-Raf [1],0.1-10
same,Biochemical activity ratio B/C,B-Raf [1],>10
same,IC50,B-Raf [2],> 0.1 µM
same,IC50,CYP2D6,> 10 µM
same,IC50,CYP3A4(BFC); [6],< 5 µM
same,IC50,CYP2C19,5 to 10 µM
same,IC50,CYP2C9; [5],< 5 µM
same,IC50,B-Raf V600E,> 0.1 µM
same,Biochemical activity ratio V600E/C,B-Raf V600E,>10
same,"turbidity threshold (L, M, H) 1.4",[3],H (high solubility if the threshold concentration is >250 μm)
same,"turbidity threshold (L, M, H) 4.5",[3],L (low solubility if the threshold concentration is <31.3 μM)
same,"turbidity threshold (L, M, H) 6.8",[3],L (low solubility if the threshold concentration is <31.3 μM)
same,"turbidity threshold (L, M, H) 7.4",[3],M (moderate solubility if the threshold concentration is 31.3 μM to 250 μM)
same,IC50,CYP3A4(BQ); [7],> 10 µM
"COc1ncnc2[nH]cc(C(=O)c3c(F)ccc(NS(=O)(=O)c4ccc(C(C)C)cc4)c3F)c12 [P-1010, N-[2,4-Difluoro-3-(4-methoxy-7H-pyrrolo[2,3-d]pyrimidine-5-carbonyl)-phenyl]-4-isopropyl-benzenesulfonamide]",IC50,CYP1A2; [8],> 10 µM
same,IC50,c-Raf-1,> 0.1 µM
same,Biochemical activity ratio B/V600E,B-Raf [1],0.1-10
same,Biochemical activity ratio B/C,B-Raf [1],0.1-10
same,IC50,B-Raf [2],> 0.1 µM
same,IC50,CYP2D6,> 10 µM
same,IC50,CYP3A4(BFC); [6],> 10 µM
same,IC50,CYP2C19,5 to 10 µM
same,IC50,CYP2C9,5 to 10 µM
same,IC50,B-Raf V600E,> 0.1 µM
same,Biochemical activity ratio V600E/C,B-Raf V600E,>10
same,"turbidity threshold (L, M, H) 1.4",[3],L (low solubility if the threshold concentration is <31.3 μM)
same,"turbidity threshold (L, M, H) 4.5",[3],L (low solubility if the threshold concentration is <31.3 μM)
same,"turbidity threshold (L, M, H) 6.8",[3],L (low solubility if the threshold concentration is <31.3 μM)
same,"turbidity threshold (L, M, H) 7.4",[3],M (moderate solubility if the threshold concentration is 31.3 μM to 250 μM)
same,IC50,CYP3A4(BQ); [7],> 10 µM
"O=C(c1c(F)ccc(NS(=O)(=O)c2ccc(C(F)(F)F)cc2)c1F)c1c[nH]c2ncnc(NC3CC3)c12 [P-1011, N-[3-(4-Cyclopropylamino-7H-pyrrolo[2,3-d]pyrimidine-5-carbonyl)-2,4-difluoro-phenyl]-4-trifluoromethyl-benzenesulfonamide]",IC50,"CYP1A2; human, 15 min",> 10 µM
same,IC50,c-Raf-1,< 0.1 µM
same,Biochemical activity ratio B/V600E,B-Raf [1],0.1-10
same,Biochemical activity ratio B/C,B-Raf [1],>10
same,IC50,B-Raf [2],< 0.1 µM
same,IC50,CYP2D6,> 10 µM
same,IC50,CYP3A4(BFC); [6],< 5 µM
same,IC50,CYP2C19,5 to 10 µM
same,IC50,CYP2C9; [5],> 10 µM
same,IC50,B-Raf V600E,> 0.1 µM
same,Biochemical activity ratio V600E/C,B-Raf V600E,>10
same,"turbidity threshold (L, M, H) 1.4",[3],M (moderate solubility if the threshold concentration is 31.3 μM to 250 μM)
same,"turbidity threshold (L, M, H) 4.5",[3],L (low solubility if the threshold concentration is <31.3 μM)
same,"turbidity threshold (L, M, H) 6.8",[3],L (low solubility if the threshold concentration is <31.3 μM)
same,"turbidity threshold (L, M, H) 7.4",[3],L (low solubility if the threshold concentration is <31.3 μM)
same,IC50,CYP3A4(BQ); [7],> 10 µM
"O=C(c1c(F)ccc(NS(=O)(=O)c2ccc(C(F)(F)F)cc2)c1F)c1c[nH]c2ncnc(O)c12 [P-1012, N-[2,4-Difluoro-3-(4-hydroxy-7H-pyrrolo[2,3-d]pyrimidine-5-carbonyl)-phenyl]-4-trifluoromethyl-benzenesulfonamide]",IC50,CYP1A2; [8],> 10 µM
same,IC50,c-Raf-1,< 0.1 µM
same,Biochemical activity ratio B/V600E,B-Raf [1],0.1-10
same,Biochemical activity ratio B/C,B-Raf [1],0.1-10
same,IC50,B-Raf [2],> 0.1 µM
same,IC50,CYP2D6,> 10 µM
same,IC50,CYP3A4(BFC); [6],> 10 µM
same,IC50,CYP2C19; [4],> 10 µM
same,IC50,CYP2C9; [5],> 10 µM
same,IC50,B-Raf V600E,> 0.1 µM
same,Biochemical activity ratio V600E/C,B-Raf V600E,>10
same,"turbidity threshold (L, M, H) 1.4",[3],M (moderate solubility if the threshold concentration is 31.3 μM to 250 μM)
same,"turbidity threshold (L, M, H) 4.5",[3],M (moderate solubility if the threshold concentration is 31.3 μM to 250 μM)
same,"turbidity threshold (L, M, H) 6.8",[3],H (high solubility if the threshold concentration is >250 μm)
same,"turbidity threshold (L, M, H) 7.4",[3],H (high solubility if the threshold concentration is >250 μm)
same,IC50,CYP3A4(BQ); [7],> 10 µM
"O=C(c1c(F)ccc(NS(=O)(=O)c2ccc(C(F)(F)F)cc2)c1F)c1c[nH]c2ncnc(NC3CCOCC3)c12 [P-1013, N-{2,4-Difluoro-3-[4-(tetrahydro-pyran-4-ylamino)-7H-pyrrolo[2,3-d]pyrimidine-5-carbonyl]-phenyl}-4-trifluoromethyl-benzenesulfonamide]",IC50,CYP1A2; [8],> 10 µM
same,IC50,c-Raf-1,< 0.1 µM
same,Biochemical activity ratio B/V600E,B-Raf [1],0.1-10
same,Biochemical activity ratio B/C,B-Raf [1],>10
same,IC50,B-Raf [2],< 0.1 µM
same,IC50,CYP2D6,> 10 µM
same,IC50,CYP3A4(BFC); [6],> 10 µM
same,IC50,CYP2C19; [4],> 10 µM
same,IC50,CYP2C9; [5],> 10 µM
same,IC50,B-Raf V600E,> 0.1 µM
same,Biochemical activity ratio V600E/C,B-Raf V600E,>10
same,"turbidity threshold (L, M, H) 1.4",[3],L (low solubility if the threshold concentration is <31.3 μM)
same,"turbidity threshold (L, M, H) 4.5",[3],L (low solubility if the threshold concentration is <31.3 μM)
same,"turbidity threshold (L, M, H) 6.8",[3],L (low solubility if the threshold concentration is <31.3 μM)
same,"turbidity threshold (L, M, H) 7.4",[3],M (moderate solubility if the threshold concentration is 31.3 μM to 250 μM)
same,IC50,CYP3A4(BQ); [7],> 10 µM
